Assay results published in patent publication US20090023697A1, “ANALGESIA METHOD” (Vernalis (R&D) Limited, priority 2003, published 2009).

Legend:
rats [1] = assay: Tail flick latency (TFL) response to ip morphine: effect of alphadolone on established morphine tolerance
Source text: An observer unaware of the nature of this treatment, saline or alphadolone, made the TFL measurements.
The TFL responses on day 1 and day 3 were combined for drug treatment and expressed as means SEM. These values were compared to see if tolerance occurred and whether co administration of alphadolone caused reversal of the tolerance effect.

mice = conditions: cited from earlier work
[2] = dose of alphadolone used for tolerance reversal (10 mg/kg); cited from earlier work
rats [3] = assay: Electrical current threshold (ECT) test of nociceptive threshold in the tail after alphadolone sustained release emulsion; conditions: 250 mg/kg alphadolone acetate sc in slow release emulsion
[4] = given ip or intragastrically; cited from earlier work
male Wistar rats [5] = assay: Rotarod running test to assess sedation after neurosteroid sustained release emulsions; conditions: sc sustained release emulsion; for sedation (rotarod run time) at 1 hour after injection: normal run time 120 s
male Wistar rats [6] = assay: Tail flick latency (TFL) response to ip morphine: effect of sustained release neurosteroid on development of morphine tolerance
[7] = alphadolone alone; cited from earlier work
[8] = in vivo; cited from earlier work
[9] = alphadolone 250 mg/kg, alphaxalone 80 mg/kg

CN1CC[C@]23c4c5ccc(O)c4O[C@H]2[C@@H](O)C=C[C@H]3[C@H]1C5 [morphine]
tail flick latency response, day 1 (pre tolerance) (rats [1]; immediate release morphine 6.4 mg/kg ip, both groups, n=9): approximately 80 % MPE

dehydroepiandrosterone sulphate
prevention of morphine tolerance (mice): positive results

CC(=O)[C@H]1CC[C@H]2[C@@H]3CC[C@H]4C[C@H](O)CC[C@]4(C)[C@H]3CC[C@]12C [allopregnanolone]
prevention of morphine tolerance (mice): positive results

CC(=O)OCC(=O)[C@H]1CC[C@H]2[C@@H]3CC[C@H]4C[C@H](O)CC[C@]4(C)[C@H]3C(=O)C[C@]12C [alphadolone, 21-acetoxy-3alpha-hydroxy-5alpha-pregnane-11, 20-dione]
TFL response, day 3 (post tolerance), morphine co administered with alphadolone (rats [1]; 6.4 mg/kg morphine ip plus alphadolone 10 mg/kg after two days morphine emulsion, mean SEM, n=9): 78.6 9.8 % MPE
day 3 response compared with day 1 response before tolerance (rats [1]; morphine 6.4 mg/kg ip co administered with alphadolone 10 mg/kg, p>0.05 one way ANOVA): equal to that produced on day 1
potentiation of morphine TFL effects [2]: potentiate morphine TFL effects
loss of consciousness / looking sedated after the injection (rats [3]): did not cause any rat to lose consciousness or in any way to look sedated
time by which nociceptive threshold (ECT) was significantly increased (rats [3]; n=10): one
time nociceptive threshold (ECT) remained elevated (rats [3]; n=10, readings up to 44 hours): 24 h
antinociception [4]: causes antinociceptive effects
sedation [4]: without sedation
sedation (rotarod run time) later than 1 hour after injection (male Wistar rats [5]; alphadolone 250 mg/kg): no sedation
sedation (rotarod run time) at 1 hour after injection (male Wistar rats [5]; [9]): small but significant amount of sedation
sedation observed during the course of the tolerance experiment (male Wistar rats [6]; sc emulsions with morphine emulsion, alphadolone 250 mg/kg/day, alphaxalone 80 mg/kg/day): no overt signs of sedation
post treatment TFL values (6.4 mg/kg ip morphine, day 3) compared with vehicle treated controls (male Wistar rats [6]; two days sc morphine emulsion plus sc emulsion of alphadolone 250 mg/kg/day or alphaxalone 80 mg/kg/day, Students t test): statistically significant difference
antinociceptive effects in the TFL test [7]: no antinociceptive effects

CC(=O)[C@H]1CC[C@H]2[C@@H]3CC[C@H]4C[C@H](O)CC[C@]4(C)[C@H]3C(=O)C[C@]12C [alphaxalone]
potency as an anaesthetic compared with alphadolone [8]: three
antinociception [4]: no antinociception
sedation [4]: causes sedation
sedation (rotarod run time) at 1 hour after injection (male Wistar rats [5]; [9]): significantly greater than that caused by alphadolone
duration of significant sedative effects (rotarod) (male Wistar rats [5]; alphaxalone 80 mg/kg): four

CC(=O)C1CCC2C3CC=C4CC(OS(=O)(=O)O)CCC4(C)C3CCC12C (centres unmarked) [pregnenolone sulphate]
prevention of morphine tolerance (mice): positive results

CC(=O)[C@H]1CC[C@H]2[C@@H]3CCC4=CC(=O)CC[C@]4(C)[C@H]3CC[C@]12C [progesterone]
prevention of morphine tolerance (mice): positive results
